Measured values published in publication PMC11990670, “Exploring the Volatility, Phase Transitions, and Solubility Properties of Five Halogenated Benzaldehydes” (Molecules, 2025).
In brackets after ≈: the same amount, converted by molar mass. Marks after values point to notes of the source that are not given here.

How the values were obtained:
[1] = Vapor pressures of crystalline and liquid phases, static method with capacitance diaphragm gauge; format: physicochemical
Text: A previously described and tested static apparatus was used to measure the vapor pressures of the condensed phases (both crystalline and liquid) of the five compounds studied. This installation employs MKS capacitance diaphragm absolute gauges, operating at self-regulated constant temperatures. Our lab is equipped with three pressure gauges. Gauge I, a Baratron 631A01TBEH (MKS instruments, Andover, MA, USA) (Tgauge = 423 K), measures pressures in the range of 0.5 to 1.3 × 10^2 Pa and operates within a temperature range of 253 to 413 K. Gauge II, the instrument used in this study, is a Baratron 631A11TBFP (MKS instruments, Andover, MA, USA) (Tgauge = 473 K), capable of measuring pressures from 0.5 to 1.3 × 10^3 Pa within a temperature range of 253 to 433 K and gauge III, a Baratron 631D02T8FP (MKS instruments, Andover, MA, USA) (Tgauge = 473 K), designed to measure pressures between 0.5 Pa and 2.6 × 10^2 Pa, also within a temperature range of 253 to 433 K. The temperatures of the samples were measured using a Pt100 platinum resistance thermometer, calibrated by comparison with a standard platinum resistance thermometer (SPRT: Tinsley Precision Instruments Ltd, London, England). To prevent vapor condensation, the tubing connecting the cell containing the condensed sample to the pressure gauge is maintained at a temperature higher than that of the sample but lower than that of the gauge. The uncertainty in temperature measurements is estimated to be u(T/K) = ±0.01, and the expanded uncertainties (0.95 confidence level, k = 2) in pressure measurements are given by the expression U(p/Pa) = 0.1 + 0.0050 (p/Pa) for the gauge used. Samples were thoroughly degassed before starting the vapor pressure measurements, ensuring consistent readings at specific temperatures and eliminating any residual volatile substances, including water.

[2] = Equilibrium solubility in water, saturation shake-flask method with UV-vis; conditions: 25 °C, thermodynamic from solid
Procedure: (§1) The concentration was measured by absorbances at 260 nm for 4-chlorobenzaldehyde, 263 nm for 4-bromobenzaldehyde and 2,4-dichlorobenzaldehyde, 297 nm for 2,6-dichlorobenzaldehyde, and 306 nm for 2,3-dichlorobenzaldehyde, using a Cary-60 UV–vis (Agilent) spectrophotometer. X-ray diffraction (XRD) and differential scanning calorimetry of residual solids were used to identify the eventual phase transformations. The purified samples of each compound studied were used for all experimental determinations, including the solubility measurements. After reaching the equilibrium, the residual solid was dried and analyzed using both DSC and XRD. The melting properties obtained from DSC were compared with those of the original purified sample, following the same procedure for the XRD analysis. […] As an example, the supporting information includes two thermograms and two XRD patterns for 2,4-dichlorobenzaldehyde (Figures S1 and S2). […] Equation (4) was derived from Equation (5), which is widely applicable to the solubility of solids.(4) ΔhydrGm°/kJ·mol^−1=9.17−5.71·log10(Scr/mol·m^−3)−ΔcrgGm°/kJ·mol^−1 (5) S=p^°/RTexpΔcrgGm°+ΔhydrGm°/−RT
(§2) An excess amount of each compound was added to a known volume of water in triplicate. […] After stirring, the solid phase was allowed to settle for 2 h. The pH of the saturated solutions was measured using a Mettler Toledo (Greifensee, Switzerland) FiveEasy F20 pH Meter calibrated with standard aqueous solutions (pH 7.00 and 4.01 or 10.1). Those solutions were then filtered through a 0.22 μm syringe hydrophilic filter (13 mm, PTFE, Labfil, Zhejiang, China) and diluted to the required concentration. The concentration of the compounds, expressed in molarity, was measured by absorbances using a Cary-60 UV–vis spectrophotometer (Agilent Technologies, Santa Clara, CA, USA) at 298.15 K (single cell Peltier accessory, ±0.15 K). The results reported in Table 6 are averaged from at least three replicates. Calibration was performed using solutions of known concentrations of each substance in water. These solutions were prepared by adding a precise mass of the substance and a specific volume of the solvent to a flask, then mixing until the substance was fully dissolved. The absorbance of these solutions was measured, and calibration curves were created.

[3] = Gibbs energy of hydration and Henry's law volatility constant calculated from sublimation and solubility data; conditions: 25 °C
Procedure: as §1
The standard states in Equation (5) are p° = 1 × 10^5 Pa for ΔcrgGm° , c° = 1 mol·L^−1 for ΔhydrGm° and s° = 1 mol·m^−3 for solubility. Using the experimental results of ΔhydrGm° , calculated through Equation (4), the values of Henry’s law volatility constants, KHpc, were determined in the logarithm form by Equation (6), that was adapted from Modarressi et al..

[4] = pH of the saturated aqueous solutions; format: physicochemical; conditions: saturated aqueous solution of the solubility experiment
Procedure: as §1, §2

Structure (SMILES): O=Cc1cccc(Cl)c1Cl [2,3-Dichlorobenzaldehyde]
- vapor pressure p ([1]; crystalline phase, T = 284.21 K): 0.49 Pa
- vapor pressure p ([1]; crystalline phase, T = 286.16 K): 0.63 Pa
- vapor pressure p ([1]; crystalline phase, T = 288.13 K): 0.78 Pa
- vapor pressure p ([1]; crystalline phase, T = 290.09 K): 0.99 Pa
- vapor pressure p ([1]; crystalline phase, T = 292.06 K): 1.26 Pa
- vapor pressure p ([1]; crystalline phase, T = 294.04 K): 1.58 Pa
- vapor pressure p ([1]; crystalline phase, T = 296.22 K): 2.00 Pa
- vapor pressure p ([1]; crystalline phase, T = 298.17 K): 2.47 Pa
- vapor pressure p ([1]; crystalline phase, T = 299.97 K): 3.02 Pa
- vapor pressure p ([1]; crystalline phase, T = 302.18 K): 3.78 Pa
- vapor pressure p ([1]; crystalline phase, T = 303.89 K): 4.58 Pa
- vapor pressure p ([1]; crystalline phase, T = 305.78 K): 5.63 Pa
- vapor pressure p ([1]; crystalline phase, T = 308.08 K): 7.12 Pa
- vapor pressure p ([1]; crystalline phase, T = 309.86 K): 8.45 Pa
- vapor pressure p ([1]; crystalline phase, T = 312.03 K): 10.58 Pa
- vapor pressure p ([1]; crystalline phase, T = 313.92 K): 12.78 Pa
- vapor pressure p ([1]; crystalline phase, T = 315.60 K): 15.22 Pa
- vapor pressure p ([1]; crystalline phase, T = 317.96 K): 18.67 Pa
- vapor pressure p ([1]; crystalline phase, T = 319.59 K): 21.97 Pa
- vapor pressure p ([1]; crystalline phase, T = 321.86 K): 27.35 Pa
- vapor pressure p ([1]; crystalline phase, T = 323.56 K): 31.92 Pa
- vapor pressure p ([1]; crystalline phase, T = 325.70 K): 39.35 Pa
- vapor pressure p ([1]; crystalline phase, T = 327.48 K): 45.52 Pa
- vapor pressure p ([1]; crystalline phase, T = 329.63 K): 56.32 Pa
- vapor pressure p ([1]; crystalline phase, T = 331.62 K): 65.87 Pa
- vapor pressure p ([1]; liquid phase, T = 335.54 K): 91.33 Pa
- vapor pressure p ([1]; liquid phase, T = 337.55 K): 103.4 Pa
- vapor pressure p ([1]; liquid phase, T = 339.54 K): 117.4 Pa
- vapor pressure p ([1]; liquid phase, T = 341.49 K): 133.6 Pa
- vapor pressure p ([1]; liquid phase, T = 343.48 K): 150.6 Pa
- vapor pressure p ([1]; liquid phase, T = 345.45 K): 169.9 Pa
- vapor pressure p ([1]; liquid phase, T = 347.44 K): 189.1 Pa
- vapor pressure p ([1]; liquid phase, T = 349.41 K): 214.0 Pa
- vapor pressure p ([1]; liquid phase, T = 351.50 K): 240.6 Pa
- vapor pressure p ([1]; liquid phase, T = 353.48 K): 267.2 Pa
- vapor pressure p ([1]; liquid phase, T = 355.36 K): 297.6 Pa
- vapor pressure p ([1]; liquid phase, T = 357.43 K): 335.9 Pa
- vapor pressure p ([1]; liquid phase, T = 359.33 K): 371.6 Pa
- vapor pressure p ([1]; liquid phase, T = 361.39 K): 419.6 Pa
- vapor pressure p ([1]; liquid phase, T = 363.27 K): 461.9 Pa
- vapor pressure p ([1]; liquid phase, T = 365.34 K): 516.4 Pa
- vapor pressure p ([1]; liquid phase, T = 367.35 K): 569.4 Pa
- vapor pressure p ([1]; liquid phase, T = 369.27 K): 630.4 Pa
- vapor pressure p ([1]; liquid phase, T = 371.17 K): 695.2 Pa
- vapor pressure p ([1]; liquid phase, T = 373.23 K): 767.3 Pa
- vapor pressure p ([1]; liquid phase, T = 375.13 K): 843.4 Pa
- vapor pressure p ([1]; liquid phase, T = 377.17 K): 930.5 Pa
- vapor pressure p ([1]; liquid phase, T = 379.07 K): 1011 Pa
- vapor pressure p ([1]; liquid phase, T = 381.03 K): 1104 Pa
- vapor pressure p ([1]; supercooled liquid, T = 327.59 K): 54.84 ^d Pa
- vapor pressure p ([1]; supercooled liquid, T = 329.66 K): 62.05 ^d Pa
- vapor pressure p ([1]; supercooled liquid, T = 331.60 K): 71.02 ^d Pa
- vapor pressure p ([1]; supercooled liquid, T = 333.65 K): 80.84 ^d Pa
- solubility at 72 h [2]: 853 µM (≈ 149 µg/mL)
- Gibbs energy of hydration ΔhydrGm° ([3]; calculated by Equation (4)): -3.99 kcal/mol
- log10(KHpc/kPa·m^3·mol^−1) Henry's law volatility constant ([3]; calculated by Equation (6)): −2.53
- KHpc×10^3 Henry's law volatility constant ([3]; value is KHpc multiplied by 10^3): 2.95 kPa·m^3·mol^−1
- pH of the saturated solution [4]: 6.43
